#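 The compound was tested at five concentrations on cells cultured in 96-well plates, with a 48-hour exposure period. Abbreviation: GI50, concentration required for 50% inhibition of growth.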 Active and inactive are the calls of the source. Rule as the data show it: active = GI50 up to about 1.1 µM and inactive = higher.
# How the values were obtained:
# Assay in all cases: NCI anticancer screen, dose series, 48 h
# HCT-15 = tested on: HCT-15
# OVCAR-8 = tested on: OVCAR-8
# SR = tested on: SR
# EKVX = tested on: EKVX
# ACHN = tested on: ACHN
# HT-29 = tested on: HT-29
# NCI-H460 = tested on: NCI-H460
# SK-MEL-2 = tested on: SK-MEL-2
# U-251 = tested on: U-251
# OVCAR-5 = tested on: OVCAR-5
# T47D = tested on: T47D
# SF-539 = tested on: SF-539
# SK-MEL-28 = tested on: SK-MEL-28
# A498 = tested on: A498
# HOP-62 = tested on: HOP-62
# A549 = tested on: A549
# SK-OV-3 = tested on: SK-OV-3
# SK-MEL-5 = tested on: SK-MEL-5
# LOX IMVI = tested on: LOX IMVI
# HOP-92 = tested on: HOP-92
# SW-620 = tested on: SW-620
# M14 = tested on: M14
# BT-549 = tested on: BT-549
# COLO 205 = tested on: COLO 205
# HCT-116 = tested on: HCT-116
# NCI-H23 = tested on: NCI-H23
# TK-10 = tested on: TK-10
# SN12C = tested on: SN12C
# SF-268 = tested on: SF-268
# NCI-H522 = tested on: NCI-H522
# PC-3 = tested on: PC-3
# RPMI-8226 = tested on: RPMI-8226
# K562 = tested on: K562
# IGROV-1 = tested on: IGROV-1
# UACC-257 = tested on: UACC-257
# OVCAR-4 = tested on: OVCAR-4
# Malme-3M = tested on: Malme-3M
# NCI/ADR-RES = tested on: NCI/ADR-RES
# UO-31 = tested on: UO-31
# HCC 2998 = tested on: HCC 2998
# OVCAR-3 = tested on: OVCAR-3
# CAKI-1 = tested on: CAKI-1
# KM12 = tested on: KM12
# MCF7 = tested on: MCF7
# MDA-MB-231 = tested on: MDA-MB-231
# Hs-578T = tested on: Hs-578T
# SF-295 = tested on: SF-295
# SNB-19 = tested on: SNB-19
# DU-145 = tested on: DU-145
# SNB-75 = tested on: SNB-75
# UACC-62 = tested on: UACC-62
# MDA-N = tested on: MDA-N
# MOLT-4 = tested on: MOLT-4
# RXF 393 = tested on: RXF 393
# MDA-MB-435 = tested on: MDA-MB-435
# 786-0 = tested on: 786-0
# NCI-H226 = tested on: NCI-H226
# HL-60 = tested on: HL-60
compound,measurement,setting,value
O=c1c(=O)c2cscc2c1=O,GI50,HCT-15,5.78 µM
same,GI50,OVCAR-8,6.55 µM (inactive)
same,GI50,SR,0.137 µM (active)
same,GI50,EKVX,5.11 µM (inactive)
same,GI50,ACHN,4.69 µM (inactive)
same,GI50,HT-29,4.93 µM (inactive)
same,GI50,NCI-H460,7.76 µM (inactive)
same,GI50,SK-MEL-2,4.92 µM (inactive)
same,GI50,U-251,4.75 µM (inactive)
same,GI50,OVCAR-5,4.74 µM (inactive)
same,GI50,T47D,3.66 µM (inactive)
same,GI50,SF-539,4.95 µM (inactive)
same,GI50,SK-MEL-28,4.53 µM (inactive)
same,GI50,A498,> 25 µM (inactive)
same,GI50,HOP-62,5.15 µM (inactive)
same,GI50,A549,8.99 µM (inactive)
same,GI50,SK-OV-3,> 25 µM (inactive)
same,GI50,SK-MEL-5,4.42 µM (inactive)
same,GI50,LOX IMVI,4.92 µM (inactive)
same,GI50,HOP-92,5.47 µM (inactive)
same,GI50,SW-620,0.989 µM (active)
same,GI50,M14,4.94 µM (inactive)
same,GI50,BT-549,4.85 µM (inactive)
same,GI50,COLO 205,4.73 µM (inactive)
same,GI50,HCT-116,4.9 µM (inactive)
same,GI50,NCI-H23,5.61 µM (inactive)
same,GI50,TK-10,4.56 µM (inactive)
same,GI50,SN12C,5.87 µM (inactive)
same,GI50,SF-268,4.4 µM (inactive)
same,GI50,NCI-H522,0.486 µM (active)
same,GI50,PC-3,4.58 µM (inactive)
same,GI50,RPMI-8226,6.47 µM (inactive)
same,GI50,K562,0.0955 µM (active)
same,GI50,IGROV-1,4.66 µM (inactive)
same,GI50,UACC-257,4.27 µM (inactive)
same,GI50,OVCAR-4,4.99 µM (inactive)
same,GI50,Malme-3M,4.39 µM (inactive)
same,GI50,NCI/ADR-RES,8 µM (inactive)
same,GI50,UO-31,4.75 µM (inactive)
same,GI50,HCC 2998,2.92 µM (inactive)
same,GI50,OVCAR-3,5.62 µM (inactive)
same,GI50,CAKI-1,4.4 µM (inactive)
same,GI50,KM12,5.15 µM (inactive)
same,GI50,MCF7,6.24 µM (inactive)
same,GI50,MDA-MB-231,5.14 µM (inactive)
same,GI50,Hs-578T,9.75 µM (inactive)
same,GI50,SF-295,> 25 µM (inactive)
same,GI50,SNB-19,6.56 µM (inactive)
same,GI50,DU-145,5.33 µM (inactive)
same,GI50,SNB-75,4.32 µM (inactive)
same,GI50,UACC-62,4.73 µM (inactive)
same,GI50,MDA-N,4.99 µM (inactive)
same,GI50,MOLT-4,4.58 µM (inactive)
same,GI50,RXF 393,4.74 µM (inactive)
same,GI50,MDA-MB-435,4.65 µM (inactive)
same,GI50,786-0,5.22 µM (inactive)
same,GI50,NCI-H226,5.55 µM (inactive)
COc1c(O)cc2c(c1O)C(=O)C(Cc1ccc(O)cc1)CO2 (stereo not drawn),GI50,HCT-15,44 µM
same,GI50,OVCAR-8,63.1 µM (inactive)
same,GI50,SR,24.9 µM (inactive)
same,GI50,EKVX,> 100 µM (inactive)
same,GI50,ACHN,> 100 µM (inactive)
same,GI50,HT-29,> 100 µM (inactive)
same,GI50,NCI-H460,44.6 µM (inactive)
same,GI50,SK-MEL-2,> 100 µM (inactive)
same,GI50,U-251,> 100 µM (inactive)
same,GI50,OVCAR-5,> 100 µM (inactive)
same,GI50,T47D,> 100 µM (inactive)
same,GI50,SF-539,56.4 µM (inactive)
same,GI50,SK-MEL-28,59.7 µM (inactive)
same,GI50,A498,> 100 µM (inactive)
same,GI50,HOP-62,94.6 µM (inactive)
same,GI50,A549,> 100 µM (inactive)
same,GI50,SK-OV-3,68.9 µM (inactive)
same,GI50,SK-MEL-5,84.9 µM (inactive)
same,GI50,LOX IMVI,> 100 µM (inactive)
same,GI50,HOP-92,68.2 µM (inactive)
same,GI50,SW-620,> 100 µM (inactive)
same,GI50,M14,> 100 µM (inactive)
same,GI50,BT-549,46.7 µM (inactive)
same,GI50,COLO 205,> 100 µM (inactive)
same,GI50,HCT-116,99.1 µM (inactive)
same,GI50,NCI-H23,> 100 µM (inactive)
same,GI50,TK-10,> 100 µM (inactive)
same,GI50,SN12C,> 100 µM (inactive)
same,GI50,SF-268,> 100 µM (inactive)
same,GI50,NCI-H522,80.7 µM (inactive)
same,GI50,PC-3,41.7 µM (inactive)
same,GI50,RPMI-8226,25.7 µM (inactive)
same,GI50,K562,22.8 µM (inactive)
same,GI50,IGROV-1,> 100 µM (inactive)
same,GI50,UACC-257,> 100 µM (inactive)
same,GI50,OVCAR-4,40.3 µM (inactive)
same,GI50,Malme-3M,> 100 µM (inactive)
same,GI50,NCI/ADR-RES,32.7 µM (inactive)
same,GI50,UO-31,> 100 µM (inactive)
same,GI50,OVCAR-3,93.1 µM (inactive)
same,GI50,CAKI-1,78.9 µM (inactive)
same,GI50,KM12,89.3 µM (inactive)
same,GI50,MCF7,> 100 µM (inactive)
same,GI50,HL-60,28.1 µM (inactive)
same,GI50,MDA-MB-231,> 100 µM (inactive)
same,GI50,Hs-578T,> 100 µM (inactive)
same,GI50,SF-295,65.8 µM (inactive)
same,GI50,SNB-19,> 100 µM (inactive)
same,GI50,DU-145,> 100 µM (inactive)
same,GI50,SNB-75,5.79 µM (inactive)
same,GI50,UACC-62,99.8 µM (inactive)
same,GI50,MDA-N,32.1 µM (inactive)
same,GI50,MOLT-4,44.5 µM (inactive)
same,GI50,RXF 393,> 100 µM (inactive)
same,GI50,MDA-MB-435,28 µM (inactive)
same,GI50,786-0,> 100 µM (inactive)

# Reference: ChEMBL document CHEMBL1201862, “PubChem BioAssay data set” (2004)
